Values of other authors as cited in article PMC3449305 (Bioorganic & medicinal chemistry, 2011).

Legend:
[1] = test system: CNS; settings: rodents
[2] = rats

SMILES	CNS effect in BOLD imaging [1]	blood-brain barrier penetration [2]
C[C@@H](NC(=O)[C@@H](CC(=O)N1CCC(N2CCCCC2)CC1)N1C(=O)[C@@H](N2C(=O)OC[C@@H]2c2ccccc2)[C@H]1/C=C/c1cccc(I)c1)c1ccccc1 [Compound 11a, (R)-4-([1,4′-Bipiperidin]-1′-yl)-2-((2R,3S)-2-((E)-3-iodostyryl)-4-oxo-3-((S)-2-oxo-4-phenyloxazolidin-3-yl)azetidin-1-yl)-4-oxo-N-((R)-1-phenylethyl)butanamide]	CNS modulatory effect	
CC(NC(=O)C(CC(=O)N1CCC(N2CCCCC2)CC1)N1C(=O)C(N2C(=O)OCC2c2ccccc2)C1C=Cc1ccccc1)c1ccccc1 (centres unmarked) [SRX246]		crosses the blood–brain barrier
